{"source": "patent US9145373B2", "about": "“Certain kynurenine-3-monooxygenase inhibitors, pharmaceutical compositions, and methods of use thereof” (CHDI FOUNDATION, INC., priority 2008, dated 2015)", "note": "Counter-ions that a name gives are not always drawn."}
{"molecular_target": "T1, KMO mouse enzyme (Mus musculus, UniProt Q91WN4)", "T1 construct": "KMO enzyme prepared at Evotec from mouse liver (4-6 weeks old) via mitochondria isolation; from tissue; host or cells: mouse liver (4-6 weeks old), mitochondria isolation, prepared at Evotec", "T1 sequence (Q91WN4 whole entry)": "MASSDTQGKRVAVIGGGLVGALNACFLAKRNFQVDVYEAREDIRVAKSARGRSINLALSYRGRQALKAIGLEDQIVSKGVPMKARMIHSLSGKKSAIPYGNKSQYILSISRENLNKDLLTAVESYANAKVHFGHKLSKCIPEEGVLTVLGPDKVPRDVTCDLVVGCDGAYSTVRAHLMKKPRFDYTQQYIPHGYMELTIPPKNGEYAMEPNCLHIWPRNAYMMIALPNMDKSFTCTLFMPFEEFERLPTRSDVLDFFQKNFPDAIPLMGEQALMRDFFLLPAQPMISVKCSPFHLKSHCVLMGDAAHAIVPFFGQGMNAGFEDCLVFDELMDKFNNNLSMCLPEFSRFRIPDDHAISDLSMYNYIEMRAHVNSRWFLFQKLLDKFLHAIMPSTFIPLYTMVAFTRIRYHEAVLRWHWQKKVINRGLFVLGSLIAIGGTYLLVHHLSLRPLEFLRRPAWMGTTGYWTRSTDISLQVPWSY", "test": "KMO mouse enzyme assay: L-Kynurenine hydroxylation to 3-Hydroxy-Kynurenine monitored by LC/MS (MRM)", "assay_type": "biochemical", "conditions": "compound at 10 μM; KMO enzyme from mouse liver mitochondria", "protocol": "(§1) A method of monitoring L-Kynurenine (KYN) hydroxylation to form 3-Hydroxy-Kynurenine (3OH-KYN) by LC/MS is described. Product is quantified by multiple reaction monitoring (MRM method).\n(§2) • Compound: Stock concentrations: 10 mM in 100% DMSO • Enzyme: KMO enzyme prepared at Evotec from mouse liver (4-6 weeks old) via mitochondria isolation as described in the literature • Substrate: L-Kynurenine (Sigma: Cat# K3750, stock concentration: 10 mM in 100 mM potassium phosphate buffer, pH 7.4) Assay Conditions: […]"}
{"compound": "CN1CCN(c2ccc(NC(=O)c3cc(-c4cccc(Cl)c4)ncn3)cc2)CC1", "note": "[6-(3-Chloro-phenyl)-pyrimidine-4-carboxylicacid[4-(4-methyl-piperazin-1-yl)-phenyl]-amide]", "INH.Mouse @ 10 μM": 87.7}
{"compound": "O=C(c1cc(-c2ccc(Cl)c(Cl)c2)ncn1)N1CC2(CC2)c2ccccc21", "note": "[[6-(3,4-Dichloro-phenyl)-pyrimidin-4-yl]-(1′,2′-dihydro-spiro[cyclopropane-1,3′-[3H]indol]-1′)-methanone]", "INH.Mouse @ 10 μM": 100.0}
{"molecular_target": "T1, KMO mouse enzyme", "test": "KMO mouse enzyme assay: L-Kynurenine hydroxylation to 3-Hydroxy-Kynurenine monitored by LC/MS (MRM)", "assay_type": "biochemical", "conditions": "compound at 10 μM; KMO enzyme from mouse liver mitochondria; read-out: INH.Mouse @ 10 μM", "protocol": "as §1, §2", "units": {"inhibition at 10 µM": "%"}}
{"compound": "CCCNC(=O)c1cc(-c2cccc(Cl)c2)ncn1", "note": "[6-(3-Chloro-phenyl)-pyrimidine-4-carboxylic acid propylamide]", "inhibition at 10 µM": 72.4}
{"compound": "O=C(Nc1cnccn1)c1cc(-c2cccc(Cl)c2)ncn1", "note": "[6-(3-Chloro-phenyl)-pyrimidine-4-carboxylic acid pyrazin-2-ylamide]", "inhibition at 10 µM": 100}
{"compound": "O=C(Nc1cccnn1)c1cc(-c2cccc(Cl)c2)ncn1", "note": "[6-(3-Chloro-phenyl)-pyrimidine-4-carboxylic acid pyridazin-3-ylamide]", "inhibition at 10 µM": 100}
{"compound": "O=C(Nc1ccccn1)c1cc(-c2cccc(Cl)c2)ncn1", "note": "[6-(3-Chloro-phenyl)-pyrimidine-4-carboxylic acid pyridin-2-ylamide]", "inhibition at 10 µM": 100}
{"compound": "O=C(Nc1cccnc1)c1cc(-c2cccc(Cl)c2)ncn1", "note": "[6-(3-Chloro-phenyl)-pyrimidine-4-carboxylic acid pyridin-3-ylamide]", "inhibition at 10 µM": 98.6}
{"compound": "O=C(Nc1ccncc1)c1cc(-c2cccc(Cl)c2)ncn1", "note": "[6-(3-Chloro-phenyl)-pyrimidine-4-carboxylic acid pyridin-4-ylamide]", "inhibition at 10 µM": 100}
{"compound": "O=C(Nc1ncccn1)c1cc(-c2cccc(Cl)c2)ncn1", "note": "[6-(3-Chloro-phenyl)-pyrimidine-4-carboxylic acid pyrimidin-2-ylamide]", "inhibition at 10 µM": 100}
{"compound": "O=C(Nc1cncnc1)c1cc(-c2cccc(Cl)c2)ncn1", "note": "[6-(3-Chloro-phenyl)-pyrimidine-4-carboxylic acid pyrimidin-5-ylamide]", "inhibition at 10 µM": 100}
{"compound": "O=C(Nc1nccs1)c1cc(-c2cccc(Cl)c2)ncn1", "note": "[6-(3-Chloro-phenyl)-pyrimidine-4-carboxylic acid thiazol-2-ylamide]", "inhibition at 10 µM": 100}
{"compound": "O=C(O)c1cc(-c2cc(F)cc(C(F)(F)F)c2)ncn1", "note": "[6-(3-Fluoro-5-trifluoromethyl-phenyl)-pyrimidine-4-carboxylic acid]", "inhibition at 10 µM": 75.8}
{"compound": "COC(=O)c1cc(-c2cccc(F)c2)ncn1", "note": "[6-(3-Fluoro-phenyl)-pyrimidine-4-carboxylic acid methyl ester]", "inhibition at 10 µM": 100}
{"compound": "O=C(Nc1cccnc1)c1cc(-c2cccc(F)c2)ncn1", "note": "[6-(3-Fluoro-phenyl)-pyrimidine-4-carboxylic acid pyridin-3-ylamide]", "inhibition at 10 µM": 94.8}
{"compound": "COC(=O)c1cc(-c2cccc(OC)c2)ncn1", "note": "[6-(3-Methoxy-phenyl)-pyrimidine-4-carboxylic acid methyl ester]", "inhibition at 10 µM": 77.5}
{"compound": "COc1cccc(-c2cc(C(=O)O)ncn2)c1", "note": "[6-(3-Methoxy-phenyl)-pyrimidine-4-carboxylic acid]", "inhibition at 10 µM": 81}
{"compound": "COC(=O)c1cc(-c2cccc(C(F)(F)F)c2)ncn1", "note": "[6-(3-Trifluoromethyl-phenyl)-pyrimidine-4-carboxylic acid methyl ester]", "inhibition at 10 µM": 94.5}
{"compound": "COC(=O)c1cc(-c2ccc(F)c(C(F)(F)F)c2)ncn1", "note": "[6-(4-Fluoro-3-trifluoromethyl-phenyl)-pyrimidine-4-carboxylic acid methyl ester]", "inhibition at 10 µM": 92.7}
{"compound": "COc1ccc(-c2cc(C(=O)O)ncn2)cc1", "note": "[6-(4-Methoxy-phenyl)-pyrimidine-4-carboxylic acid]", "inhibition at 10 µM": 100}
{"compound": "COC(=O)c1cc(-c2cc(Cl)ccc2F)ncn1", "note": "[6-(5-Chloro-2-fluoro-phenyl)-pyrimidine-4-carboxylic acid methyl ester]", "inhibition at 10 µM": 100}
{"compound": "O=C(O)c1cc(-c2cc(Cl)ccc2F)ncn1", "note": "[6-(5-Chloro-2-fluoro-phenyl)-pyrimidine-4-carboxylic acid]", "inhibition at 10 µM": 100}
{"compound": "COC(=O)c1cc(-c2cncc(Cl)c2)ncn1", "note": "[6-(5-Chloro-pyridin-3-yl)-pyrimidine-4-carboxylic acid methyl ester]", "inhibition at 10 µM": 93.2}
{"compound": "O=C(O)c1cc(-c2cncc(Cl)c2)ncn1", "note": "[6-(5-Chloro-pyridin-3-yl)-pyrimidine-4-carboxylic acid]", "inhibition at 10 µM": 91.7}
{"compound": "COC(=O)c1cc(-c2cncc(F)c2)ncn1", "note": "[6-(5-Fluoro-pyridin-3-yl)-pyrimidine-4-carboxylic acid methyl ester]", "inhibition at 10 µM": 87.2}
{"compound": "O=C(O)c1cc(-c2cncc(F)c2)ncn1", "note": "[6-(5-Fluoro-pyridin-3-yl)-pyrimidine-4-carboxylic acid]", "inhibition at 10 µM": 96.1}
{"compound": "COC(=O)c1cc(-c2ccccc2)ncn1", "note": "[6-Phenyl-pyrimidine-4-carboxylic acid methyl ester]", "inhibition at 10 µM": 100}
{"compound": "COC(=O)c1cc(-c2cccnc2)ncn1", "note": "[6-Pyridin-3-yl-pyrimidine-4-carboxylic acid methyl ester trifluoroacetic acid salt]", "inhibition at 10 µM": 74.5}
{"compound": "COC(=O)c1cc(-c2cccc(C)c2)ncn1", "note": "[6-m-Tolyl-pyrimidine-4-carboxylic acid methyl ester]", "inhibition at 10 µM": 96.3}
{"compound": "O=C(c1cc(-c2ccc(Cl)c(Cl)c2)ncn1)N1CCc2cc(Cl)ccc21", "note": "[(5-Chloro-2,3-dihydro-indol-1-yl)-[6-(3,4-dichloro-phenyl)-pyrimidin-4-yl]-methanone]", "inhibition at 10 µM": 100}
{"compound": "O=C(c1cc(-c2cccc(Cl)c2)ncn1)N1CCc2cc(Cl)ccc21", "note": "[(5-Chloro-2,3-dihydro-indol-1-yl)-[6-(3-chloro-phenyl)-pyrimidin-4-yl]-methanone]", "inhibition at 10 µM": 100}
{"compound": "NC(=O)[C@H]1CCCN1C(=O)c1cc(-c2cccc(Cl)c2)ncn1", "note": "[(R)-1-[6-(3-Chloro-phenyl)-pyrimidine-4-carbonyl]-pyrrolidine-2-carboxylic acid amide]", "inhibition at 10 µM": 95.4}
{"compound": "NC(=O)[C@@H]1CCCN1C(=O)c1cc(-c2cccc(Cl)c2)ncn1", "note": "[(S)-1-[6-(3-Chloro-phenyl)-pyrimidine-4-carbonyl]-pyrrolidine-2-carboxylic acid amide]", "inhibition at 10 µM": 91.1}
{"compound": "O=C(c1cc(-c2cccc(Cl)c2)ncn1)N1CCC1", "note": "[Azetidin-1-yl-[6-(3-chloro-phenyl)-pyrimidin-4-yl]-methanone]", "inhibition at 10 µM": 100}
{"compound": "COc1ccc(S(=O)(=O)Nc2cc(-c3ccc(Cl)c(Cl)c3)ncn2)cc1OC", "note": "[N-[6-(3,4-Dichloro-phenyl)-pyrimidin-4-yl]-3,4-dimethoxy-benzenesulfonamide]", "inhibition at 10 µM": 85}
{"compound": "CS(=O)(=O)Nc1cc(-c2ccc(Cl)c(Cl)c2)ncn1", "note": "[N-[6-(3,4-Dichloro-phenyl)-pyrimidin-4-yl]-methanesulfonamide]", "inhibition at 10 µM": 51.2}
{"compound": "CS(=O)(=O)NC(=O)c1cc(-c2cccc(Cl)c2)ncn1", "note": "[N-[6-(3-Chloro-phenyl)-pyrimidine-4-carbonyl]-methanesulfonamide]", "inhibition at 10 µM": 99.5}
{"compound": "O=S(=O)(O)c1cc(-c2cccc(Cl)c2)ncn1", "note": "[Sodium; 6-(3-chloro-phenyl)-pyrimidine-4-sulfonate]", "inhibition at 10 µM": 97.1}
{"compound": "O=C(c1cc(-c2ccc(Cl)c(Cl)c2)ccn1)N1CCc2ccccc21", "note": "[[4-(3,4-Dichloro-phenyl)-pyridin-2-yl]-(2,3-dihydro-indol-1-yl)-methanone]", "inhibition at 10 µM": 96.6}
{"compound": "O=C(c1cc(-c2cc(Cl)cc(Cl)c2)ccn1)N1CCc2ccccc21", "note": "[[4-(3,5-Dichloro-phenyl)-pyridin-2-yl]-(2,3-dihydro-indol-1-yl)-methanone]", "inhibition at 10 µM": 54.5}
{"compound": "O=C(c1cc(-c2cccc(Cl)c2)ccn1)N1CCc2ccccc21", "note": "[[4-(3-Chloro-phenyl)-pyridin-2-yl]-(2,3-dihydro-indol-1-yl)-methanone]", "inhibition at 10 µM": 100}
{"compound": "O=C(c1cc(-c2ccc(Cl)c(Cl)c2)ncn1)N1Cc2ccccc2C1", "note": "[[6-(3,4-Dichloro-phenyl)-pyrimidin-4-yl]-(1,3-dihydro-isoindol-2-yl)-methanone]", "inhibition at 10 µM": 63.5}
{"compound": "O=C(c1cc(-c2ccc(Cl)c(Cl)c2)ncn1)N1CCc2ccccc21", "note": "[[6-(3,4-Dichloro-phenyl)-pyrimidin-4-yl]-(2,3-dihydro-indol-1-yl)-methanone]", "inhibition at 10 µM": 100}
{"compound": "O=C(c1cc(-c2ccc(Cl)c(Cl)c2)ncn1)N1CCCc2ccccc21", "note": "[[6-(3,4-Dichloro-phenyl)-pyrimidin-4-yl]-(3,4-dihydro-2H-quinolin-1-yl)-methanone]", "inhibition at 10 µM": 92.6}
{"compound": "O=C(c1cc(-c2ccc(Cl)c(Cl)c2)ncn1)N1CCc2cc(F)ccc21", "note": "[[6-(3,4-Dichloro-phenyl)-pyrimidin-4-yl]-(5-fluoro-2,3-dihydro-indol-1-yl)-methanone]", "inhibition at 10 µM": 100}
{"compound": "O=C(c1cc(-c2cc(Cl)cc(Cl)c2)ncn1)N1CCc2ccccc21", "note": "[[6-(3,5-Dichloro-phenyl)-pyrimidin-4-yl]-(2,3-dihydro-indol-1-yl)-methanone]", "inhibition at 10 µM": 98.3}
{"compound": "O=C(c1cc(-c2cccc(Cl)c2)ncn1)N1Cc2ccccc2C1", "note": "[[6-(3-Chloro-phenyl)-pyrimidin-4-yl]-(1,3-dihydro-isoindol-2-yl)-methanone]", "inhibition at 10 µM": 100}
{"compound": "O=C(c1cc(-c2cccc(Cl)c2)ncn1)N1CCc2ccccc21", "note": "[[6-(3-Chloro-phenyl)-pyrimidin-4-yl]-(2,3-dihydro-indol-1-yl)-methanone]", "inhibition at 10 µM": 100}
{"compound": "O=C(c1cc(-c2cccc(Cl)c2)ncn1)N1CCc2cnccc21", "note": "[[6-(3-Chloro-phenyl)-pyrimidin-4-yl]-(2,3-dihydro-pyrrolo[3,2-c]pyridin-1-yl)-methanone]", "inhibition at 10 µM": 100}
{"compound": "CC1Cc2ccccc2N1C(=O)c1cc(-c2cccc(Cl)c2)ncn1", "note": "(stereo not shown) [[6-(3-Chloro-phenyl)-pyrimidin-4-yl]-(2-methyl-2,3-dihydro-indol-1-yl)-methanone]", "inhibition at 10 µM": 76.9}
